Test results as given in publication PMC9040621 (2021).

Tested on: d(CCAATTGG)2 (DNA, duplex) CCAATTGG
Test: differential scanning calorimetry
Conditions: Na+ (sodium phosphate buffer); 100 μM DNA, compound/DNA = 1; free Tm 41.73 °C

SMILES	ΔTm
O=c1cc(-c2ccccc2)oc2cc(O)c(O)c(O)c12	13.88 °C
O=c1cc(-c2ccccc2)oc2cc(O)cc(O)c12	12.14 °C
O=c1cc(-c2ccccc2)oc2ccccc12	-2.07 °C
